US20210196720A1 (UROVANT SCIENCES GMBH, priority 2018, published 2021)
Like-named read-outs stand apart in the source and are kept apart here.

Experiments:
[1] = Drug interaction: effect of conmed on vibegron PK; assay type: in vivo, human; details: for half-life / AUC / Cmax: human, oral; for half-life: read-out: GM t1/2 (converted); for AUC / Cmax: plasma
Description: However, these interactions are not expected to be clinically significant.

β3-AR = β3-AR (Homo sapiens, UniProt P13945); experiment: Adenylyl cyclase functional assay in CHO cells stably expressing human β3-AR; assay type: cell-based; set-up: expressed in transfected cells
Chain of β3-AR (P13945 whole entry): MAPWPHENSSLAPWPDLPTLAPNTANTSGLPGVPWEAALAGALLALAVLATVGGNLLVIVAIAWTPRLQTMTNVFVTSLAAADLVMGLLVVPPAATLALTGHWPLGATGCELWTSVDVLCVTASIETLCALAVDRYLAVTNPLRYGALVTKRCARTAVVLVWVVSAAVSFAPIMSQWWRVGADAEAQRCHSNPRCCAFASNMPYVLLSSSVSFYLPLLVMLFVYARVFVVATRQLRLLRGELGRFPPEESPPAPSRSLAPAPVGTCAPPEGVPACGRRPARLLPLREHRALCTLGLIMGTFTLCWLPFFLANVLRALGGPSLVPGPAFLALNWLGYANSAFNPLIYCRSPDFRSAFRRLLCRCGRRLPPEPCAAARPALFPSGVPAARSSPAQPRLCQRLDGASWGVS
Experimental: The degree of activation relative to a proven full agonist (isoproterenol) was measured along with the compound EC50.

[2] = Renal impairment PK, single 100 mg; set-up: AUC0-inf GMR vs healthy / Cmax GMR vs healthy: unit not given beside the values;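 note: pharmacokinetic parameters in patients with renal impairment of differing severity, statistically compared against matched healthy subjects as controls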
[3] = in vivo
[4] = Multiple rising dose Phase 1 PK, healthy subjects, day 14 (young males unless stated); assay type: in vivo, human; details: for CL renal: urine, read-out: renal clearance CLR at steady state
Description: The steady state AUC geometric mean accumulation ratios were ˜2 in young male subjects and ˜2.8 in elderly subjects (male and female).
Although exposures were similar in middle-aged males when compared to young males, plasma concentrations were higher in elderly compared to middle-aged and young subjects. […] Furthermore, the steady state AUC geometric mean accumulation ratios were ˜2 in young males and ˜2.8 in the elderly.

[5] = Maximum MA4 heart rate, multiple-dose Phase 1 study, day 14; assay type: in vivo, human
Experimental: More intensive assessments of heart rate and blood pressure were performed in healthy volunteers in several Phase 1 studies. […] Doses ranged from 25 to 400 mg once daily for 7 to 28 days depending on the cohort. Least squares mean and 90% confidence intervals of maximum change from baseline in moving average of heart rate over 4 hours postdose (MA4 HR) are presented in Table 14.

[6] = 100 mg QD + tolterodine ER 4 mg QD
[7] = 100 mg single + diltiazem ER 240 mg QD
[8] = 100 mg single + ketoconazole 200 mg every 12 hours
[9] = 100 mg, 100 mg QD alone (tolterodine study)
[10] = 100 mg, 100 mg single, alone (diltiazem study)
[11] = 100 mg, 100 mg single, alone (ketoconazole study)
[12] = 150 mg QD + tolterodine ER 4 mg QD
[13] = 150 mg, 150 mg QD alone (tolterodine study)
[14] = with multiple doses of diltiazem

## O=C(Nc1ccc(C[C@@H]2CC[C@H]([C@H](O)c3ccccc3)N2)cc1)[C@@H]1CCc2nccc(=O)n21 [Vibegron, (6S)-N-[4-[[(2S,5R)-5-[(R)-hydroxy(phenyl)methyl]pyrrolidin-2-yl]methyl]phenyl]-4-oxo-7,8-dihydro-6H-pyrrolo[1,2-a]pyrimidine-6-carboxamide]
[1]; in vivo, 100 mg, vibegron alone
  half-life: 75 h
[1]; in vivo, with diltiazem
  half-life: 75.4 h
[1]; in vivo, with ketoconazole
  half-life: 80.2 h
[1]; [6]
  AUC: 1790 ng·h/mL
  Cmax: 163 ng/mL
[1]; [7]
  AUC: 2170 ng·h/mL
  Cmax: 167 ng/mL
[1]; [8]
  AUC: 2850 ng·h/mL
  Cmax: 251 ng/mL
[1]; [9]
  AUC: 1660 ng·h/mL
  Cmax: 158 ng/mL
[1]; [10]
  AUC: 1330 ng·h/mL
  Cmax: 99.8 ng/mL
[1]; [11]
  AUC: 1370 ng·h/mL
  Cmax: 113 ng/mL
[1]; [12]
  AUC: 3100 ng·h/mL
  Cmax: 304 ng/mL
[1]; [13]
  AUC: 2780 ng·h/mL
  Cmax: 269 ng/mL
[1]; in vivo
  effect of tolterodine ER 4 mg on pharmacokinetics of vibegron: no effect
[1]; with a potent CYP3A/P-gp inhibitor
  higher exposure: ~2 fold
[1]; [14]
  GM AUC0-inf increase: 63%
  GM Cmax increase: 68%
β3-AR
  EC50: 1.1 nM
β3-AR; 40% human serum
  EC50: 1.7 nM
[2]; healthy matched controls
  AUC(0-inf): 1540 ng·h/mL
  Apparent terminal t1/2: 98.8 h
  CL/F: 64.9 L/h
  CLR: 10.4 L/h
  Fe[urine]48 hr: 7.9%
[2]; mild renal impairment
  AUC0-inf GMR vs healthy: 1.49
  AUC0-inf higher than healthy controls: 49%
  AUC(0-inf): 2290 ng·h/mL
  Apparent terminal t1/2: 96.2 h
  CL/F: 43.6 L/h
  CLR: 6.3 L/h
  CLR reduction vs healthy controls: 39%
  Cmax: 210 ng/mL
  Cmax GMR vs healthy: 1.96
  Cmax higher than healthy controls: 96%
  Fe[urine]48 hr: 8.5%
  Tmax: 1.0 h
[2]; moderate renal impairment
  AUC0-inf GMR vs healthy: 2.06
  AUC0-inf higher than healthy controls: 106%
  AUC(0-inf): 3170 ng·h/mL
  Apparent terminal t1/2: 108 h
  CL/F: 31.5 L/h
  CLR: 3.6 L/h
  CLR reduction vs healthy controls: 65%
  Cmax: 180 ng/mL
  Cmax GMR vs healthy: 1.68
  Cmax higher than healthy controls: 68%
  Fe[urine]48 hr: 5.5%
  Tmax: 1.3 h
  mean increase in AUC vs normal renal function: 1.6 fold
[2]; severe renal impairment
  AUC0-inf GMR vs healthy: 1.83
  AUC0-inf higher than healthy controls: 83%
  AUC(0-inf): 2820 ng·h/mL
  CL/F: 35.5 L/h
  CLR: 1.9 L/h
  CLR reduction vs healthy controls: 82%
  Cmax GMR vs healthy: 1.42
  Cmax higher than healthy controls: 42%
  Fe[urine]48 hr: 2.1%
  Tmax: 0.5 h
[3]
  effect on QTc or blood pressure: no clinically meaningful effect
[4]; 25 mg QD
  Ctrough: 5.07 ± 0.711 ng/mL
[4]; 50 mg QD
  Ctrough: 15.2 ± 5.07 ng/mL
[4]; 50 mg QD, Japanese
  Ctrough: 16.5 ± 6.05 ng/mL
[4]; 100 mg QD
  Ctrough: 31.9 ± 11.5 ng/mL
  steady state Cmax, elderly vs young males: ~1.3 fold
[4]; 100 mg QD, elderly male and female
  Ctrough: 54.2 ± 15.3 ng/mL
[4]; 100 mg, elderly
  fe0-24 hr, ss: ~17%
[4]; 150 mg QD, middle-aged female, fasted
  Cmax: 346 ± 139 ng/mL
[4]; 100 and 150 mg, young males
  fe0-24 hr, ss: ~14%
[4]; Day 14
  steady state exposure (AUC0-24) higher, elderly Japanese vs non-Japanese: 35%
[4]; both sexes, human, plasma, oral, 100 mg, 100 mg QD, elderly Japanese, read-out: AUC0-24
  AUC(0-t): 2920 ± 693 ng·h/mL
[4]; both sexes, human, plasma, oral, 100 mg, 100 mg QD, elderly Japanese, read-out: t1/2 (converted)
  half-life: 75.1 ± 3.9 h
[4]; both sexes, human, plasma, oral, 100 mg, 100 mg QD, elderly male and female, read-out: AUC0-24
  AUC(0-t): 2230 ± 671 ng·h/mL
[4]; both sexes, human, plasma, oral, 100 mg, 100 mg QD, elderly male and female, read-out: Cmax
  Cmax: 224 ± 92 ng/mL
[4]; both sexes, human, plasma, oral, 100 mg, 100 mg QD, elderly male and female, read-out: t1/2 (converted)
  half-life: 88.4 ± 10.7 h
[4]; both sexes, human, oral, 100 mg, elderly male and female
  CL renal: 127 mL/min
[4]; elderly and females
  Cmax higher than healthy young males: 50-70%
[4]; female, human, plasma, oral, 100 mg, elderly females, read-out: steady state AUC0-24hr
  AUC(0-t): 2620 ng·h/mL
[4]; female, human, plasma, oral, 100 mg, elderly females, read-out: steady state Cmax
  Cmax: 278 ng/mL
[4]; female, human, plasma, oral, 150 mg, 150 mg QD, middle-aged female, fasted, read-out: AUC0-24
  AUC(0-t): 3180 ± 925 ng·h/mL
[4]; female, human, plasma, oral, 150 mg, 150 mg QD, middle-aged female, fasted, read-out: Cmax
  Cmax: 246 ± 139 ng/mL
[4]; female, human, plasma, oral, 150 mg, 150 mg QD, middle-aged female, read-out: t1/2 (converted)
  half-life: 83.1 ± 17.2 h
[4]; human, in vivo
  Cmax higher, elderly Japanese vs non-Japanese: 82%
  steady state AUC, middle-aged females vs middle-aged males: ~1.5 fold
  steady state exposure higher, Japanese vs non-Japanese young males: ~30%
[4]; human, plasma, oral, young and elderly subjects, read-out: terminal t1/2
  half-life: 59 to 94 h
[4]; male, human, plasma, oral, 25 mg, 25 mg QD, read-out: AUC0-24
  AUC(0-t): 164 ng·h/mL
[4]; male, human, plasma, oral, 25 mg, 25 mg QD, read-out: Cmax
  Cmax: 15.6 ± 6.93 ng/mL
[4]; male, human, plasma, oral, 25 mg, 25 mg QD, read-out: t1/2 (converted)
  half-life: 94 ± 9.6 h
[4]; male, human, plasma, oral, 50 mg, 50 mg QD, Japanese, read-out: AUC0-24
  AUC(0-t): 613 ± 296 ng·h/mL
[4]; male, human, plasma, oral, 50 mg, 50 mg QD, Japanese, read-out: Cmax
  Cmax: 56.9 ± 34.2 ng/mL
[4]; male, human, plasma, oral, 50 mg, 50 mg QD, Japanese, read-out: t1/2 (converted)
  half-life: 69.4 ± 6.6 h
[4]; male, human, plasma, oral, 50 mg, 50 mg QD, read-out: AUC0-24
  AUC(0-t): 507 ± 176 ng·h/mL
[4]; male, human, plasma, oral, 50 mg, 50 mg QD, read-out: Cmax
  Cmax: 41.5 ± 12.3 ng/mL
[4]; male, human, plasma, oral, 50 mg, 50 mg QD, read-out: t1/2 (converted)
  half-life: 77.2 ± 8.9 h
[4]; male, human, plasma, oral, 100 mg, 100 mg QD, Japanese, read-out: AUC0-24
  AUC(0-t): 1710 ± 542 ng·h/mL
[4]; male, human, plasma, oral, 100 mg, 100 mg QD, Japanese, read-out: Cmax
  Cmax: 180 ± 111 ng/mL
[4]; male, human, plasma, oral, 100 mg, 100 mg QD, Japanese, read-out: t1/2 (converted)
  half-life: 56.8 ± 19.2 h
[4]; male, human, plasma, oral, 100 mg, 100 mg QD, read-out: AUC0-24
  AUC(0-t): 1280 ± 529 ng·h/mL
[4]; male, human, plasma, oral, 100 mg, 100 mg QD, read-out: Cmax
  Cmax: 169 ± 80.9 ng/mL
[4]; male, human, plasma, oral, 100 mg, 100 mg QD, read-out: t1/2 (converted)
  half-life: 79.7 ± 11.5 h
[4]; male, human, plasma, oral, 150 mg, 150 mg QD, middle-aged male, after 28 days, read-out: t1/2 (converted)
  half-life: 72.7 h
[4]; male, human, plasma, oral, 150 mg, 150 mg QD, middle-aged male, read-out: AUC0-24
  AUC(0-t): 2170 ± 452 ng·h/mL
[4]; male, human, plasma, oral, 150 mg, 150 mg QD, middle-aged male, read-out: Cmax
  Cmax: 293 ± 67.1 ng/mL
[4]; male, human, plasma, oral, 150 mg, 150 mg QD, read-out: AUC0-24
  AUC(0-t): 2280 ± 1140 ng·h/mL
[4]; male, human, plasma, oral, 150 mg, 150 mg QD, read-out: Cmax
  Cmax: 305 ± 215 ng/mL
[4]; male, human, plasma, oral, 150 mg, 150 mg QD, read-out: t1/2 (converted)
  half-life: 79.2 ± 9.2 h
[4]; male, human, plasma, oral, 200 mg, 200 mg QD, Japanese, read-out: AUC0-24
  AUC(0-t): 4370 ± 618 ng·h/mL
[4]; male, human, plasma, oral, 200 mg, 200 mg QD, Japanese, read-out: Cmax
  Cmax: 631 ± 154 ng/mL
[4]; male, human, plasma, oral, 200 mg, 200 mg QD, Japanese, read-out: t1/2 (converted)
  half-life: 59.5 ± 1.9 h
[4]; male, human, plasma, oral, 200 mg, 200 mg QD, read-out: AUC0-24
  AUC(0-t): 3200 ± 1120 ng·h/mL
[4]; male, human, plasma, oral, 200 mg, 200 mg QD, read-out: Cmax
  Cmax: 313 ± 168 ng/mL
[4]; male, human, plasma, oral, 200 mg, 200 mg QD, read-out: t1/2 (converted)
  half-life: 64.7 ± 6.5 h
[4]; male, human, plasma, oral, 300 mg, 300 mg QD, read-out: AUC0-24
  AUC(0-t): 6980 ± 1040 ng·h/mL
[4]; male, human, plasma, oral, 300 mg, 300 mg QD, read-out: Cmax
  Cmax: 733 ± 164 ng/mL
[4]; male, human, plasma, oral, 300 mg, 300 mg QD, read-out: t1/2 (converted)
  half-life: 61.7 ± 7.3 h
[4]; male, human, plasma, oral, 400 mg, 400 mg QD, read-out: AUC0-24
  AUC(0-t): 10500 ± 2140 ng·h/mL
[4]; male, human, plasma, oral, 400 mg, 400 mg QD, read-out: Cmax
  Cmax: 1400 ± 257 ng/mL
[4]; male, human, plasma, oral, 400 mg, 400 mg QD, read-out: t1/2 (converted)
  half-life: 58.9 ± 5.9 h
[4]; male, human, oral, young males, all dose levels
  CL renal: 150 to 187 mL/min
[4]; once daily dosing
  time to steady state: ≤ 7 days
[4]; regardless of age
  AUC higher in females than males: 50%
[5]; 25 mg
  Maximum MA4 HR (LS mean): 1.47 bpm
  Maximum MA4 HR, difference from placebo: −1.60 bpm
[5]; 50 mg
  Maximum MA4 HR (LS mean): 1.50 bpm
  Maximum MA4 HR, difference from placebo: −1.57 bpm
[5]; 100 mg
  Maximum MA4 HR (LS mean): 3.28 bpm
[5]; 150 mg
  Maximum MA4 HR (LS mean): 3.17 bpm
  Maximum MA4 HR, difference from placebo: 0.10 bpm
[5]; 200 mg
  Maximum MA4 HR (LS mean): 5.67 bpm
  Maximum MA4 HR, difference from placebo: 2.60 bpm
[5]; 300 mg
  Maximum MA4 HR (LS mean): 9.06 bpm
  Maximum MA4 HR, difference from placebo: 5.98 bpm
[5]; 400 mg
  Maximum MA4 HR (LS mean): 10.33 bpm
  Maximum MA4 HR, difference from placebo: 7.26 bpm
